Test results as given in patent publication US20220280594A1, “APPLICATION OF POLYPEPTIDE OR DERIVATIVE THEREOF” (CHENGDU HUITAI BIOMEDICINE CO., LTD., priority 2019, published 2022).
Ends that are not written are not given here. PEG = not defined here

How the values were obtained:
[1] = test system: human melanoma cells (A375); experiment: scratch assay, migration of A375 cells; assay type: cell-based; conditions: A375, 10 μM, 48 hours; control group 44.03 ± 6.21
Outline: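 Monolayers scratched, washed with PBS and cultured 48 hours in 2% FBS medium with polypeptides N1-N54 at 10 μM or PBS control, three wells per group. Migration rate (%) = (original − current scratch width)/original width×100, from imaged scratch widths.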

[2] = test system: human lung squamous carcinoma cells (NCI-H226); experiment: scratch assay, migration of NCI-H226 cells; assay type: cell-based; conditions: NCI-H226, 10 μM, 48 hours; control group 65.31 ± 3.19
Outline: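 A straight scratch was made in confluent NCI-H226 monolayers (1-2×10^5 cells/well). Cells were then kept 48 h in 2% FBS medium with 10 μM polypeptide or PBS control, triplicate wells. Migration rate (%) = (original − current scratch width)/original width ×100, from imaged scratch widths.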

[3] = test system: human non-small cell lung cancer cells (A549); experiment: scratch assay, migration of A549 cells; assay type: cell-based; conditions: A549, 10 μM, 48 hours; control group 75.31 ± 8.19
Outline: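 Confluent A549 monolayers in 24-well plates were scratched, washed with PBS, then cultured 48 h in 2% FBS medium with peptide at 10 μM or PBS control, triplicate wells. Scratch width measured from images; migration rate (%) = (original − current width)/original width × 100.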

[4] = test system: human colon cancer cells (HCT-116); experiment: scratch assay, migration of HCT-116 cells; assay type: cell-based; conditions: HCT-116, 10 μM, 48 hours; control group 47.78 ± 6.07
Outline: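 Confluent HCT-116 monolayers were scratched, washed and cultured 48 h in 2% FBS medium with peptide at 10 μM versus PBS control, triplicate wells. Migration rate (%) = (original minus current scratch width)/original width × 100, from at least 3 images per well.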

[5] = test system: human pharyngeal squamous-cell carcinoma cells (Fadu); experiment: scratch assay, migration of Fadu cells; assay type: cell-based; conditions: 10 μM, 48 hours, control group 28.76 ± 4.08
Outline: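 Confluent Fadu monolayers scratched, then cultured 48 h with 10 μM polypeptide in medium with 2% FBS; PBS control, triplicate wells. Migration rate (%) = (original − current scratch width)/original width × 100, from ≥3 images per well.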

[6] = test system: human breast cancer cells (MCF-7); experiment: scratch assay, migration of MCF-7 cells; assay type: cell-based; conditions: MCF-7, 10 μM, 48 hours; control group 30.97 ± 1.79
Outline: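 MCF-7 monolayers scratched, then cultured 48 hours in 2% FBS medium with test peptide at 10 μM versus PBS control, triplicate wells. Migration rate (%) = (original − current scratch width)/original width × 100, measured from images.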

[7] = test system: human breast cancer cells (MDA-MB-231); experiment: scratch assay, migration of MDA-MB-231 cells; assay type: cell-based; conditions: MDA-MB-231, 10 μM, 48 hours; control group 36.19 ± 5.15
Outline: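 MDA-MB-231 monolayers (1-2×10^5 cells/well) were scratched, then kept 48 h in medium with 2% FBS containing polypeptide at 10 μM, with a PBS control, in triplicate wells. Migration rate (%) was taken from scratch width: (original − current)/original ×100.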

[8] = test system: human lung cancer cells (A549) subcutaneous xenograft; experiment: lung cancer subcutaneous xenograft animal model, intravenous injection; assay type: in vivo, mice (BALB/c-nu/nu); conditions: intravenous 60 mg/kg once every other day, 20 days; for Weight of tumor (g) (mean ± SD): control 2.53 ± 0.17; for Volume of tumor (mm^3) (mean ± SD): control 3373.26 ± 581.44
Outline: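 Female BALB/c-nu/nu mice (4-6 weeks) inoculated subcutaneously with ~2×10^6 A549 cells; grouped once tumours exceeded 100 mm^3. Peptides given intravenously at 60 mg/kg for 20 days versus model control. Tumour weight and volume measured at dissection; body weight recorded every other day.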

[9] = test system: human prostate cancer cells (22RV1); experiment: scratch assay, migration of 22RV1 cells; assay type: cell-based; conditions: 22RV1, 10 μM, 48 hours; control group 25.41 ± 5.01
Outline: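 22RV1 monolayers (seeded 1-2×10^5 cells/well) were scratched, washed, then given 2% FBS medium with 10 μM polypeptide or PBS, triplicate wells, for 48 h. Migration rate (%) = (original − current scratch width)/original width ×100, from ≥3 images per well.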

[10] = test system: human lung cancer cells (95D); experiment: scratch assay, migration of 95D cells; assay type: cell-based; conditions: 10 μM, 48 hours, control group 55.3 ± 3.19
Outline: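 Confluent 95D monolayers were scratched, washed with PBS and cultured 48 h in 2% FBS medium containing peptide (10 μM) or PBS control, in triplicate wells. Scratch width was measured on images; migration rate (%) = (original width − current width)/original width × 100.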

[11] = test system: human liver cancer cells (HepG2); experiment: scratch assay, migration of HepG2 cells; assay type: cell-based; conditions: HepG2, 10 μM, 48 hours; control group 71.01 ± 6.63
Outline: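 HepG2 monolayers scratched, then cultured 48 h in 2% FBS medium with test polypeptides at 10 μM versus PBS control, triplicate wells. Migration rate (%) computed from original versus current scratch width in images.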

Row | Substance | Migration rate (%) (mean ± SD, P) [1] | Migration rate (%) (mean ± SD, P) [2] | Migration rate (%) (mean ± SD, P) [3] | Migration rate (%) (mean ± SD, P) [4] | Migration rate (%) (mean ± SD, P) [5] | Migration rate (%) (mean ± SD, P) [6] | Migration rate (%) (mean ± SD, P) [7] | Weight of tumor (g) (mean ± SD) [8] | Volume of tumor (mm^3) (mean ± SD) [8] | Migration rate (%) (mean ± SD, P) [9] | Migration rate (%) (mean ± SD, P) [10] | Migration rate (%) (mean ± SD, P) [11]
1 | N8: SEQ ID NO: 1 with deletion of positions 15-18 and positions 3, 4 and 11 (YRFLAKENTQD) | 4.74 ± 1.84,*** % | 20.29 ± 4.29,*** % | 32.62 ± 5.83,** % | 16.96 ± 3.87,** % | 9.54 ± 5.75,** % | 11.56 ± 2.35,** % | 19.02 ± 3.53,* % | 1.02 ± 0.21 | 1359.06 ± 275.17 | 8.75 ± 1.98,** % | 35.13 ± 4.45,** % | 18.65 ± 6.88,*** %
2 | N6: SEQ ID NO: 1 with deletion of four amino acids at the carboxyl terminal (positions 15-18) (YRVRFLAKENVTQD) | 11.22 ± 1.65,*** % | 19.72 ± 8.97,** % | 40.67 ± 3.66,** % | 18.13 ± 2.68,** % | 11.34 ± 2.04,** % | 15.69 ± 4.09,* % | 17.42 ± 4.98,* % | 0.88 ± 0.19 | 1361.03 ± 248.72 | 12.31 ± 2.85,* % | 39.20 ± 4.24,** % | 16.65 ± 6.70,*** %
3 | N29: SEQ ID NO: 1 with deletion of positions 1-5 and 15-18 and PEG modification at the amino terminal ({PEG}-LAKENVTQD; reading uncertain) | 14.01 ± 4.22,*** % | 40.30 ± 4.81,** % | 20.55 ± 3.73,*** % | 8.24 ± 2.32,*** % | 12.27 ± 2.23,** % | 19.15 ± 3.04,* % | 18 ± 4.47,* % | 1 ± 0.17 | 1365.48 ± 435.32 | 9.99 ± 3.89,* % | 30.30 ± 4.81,** % | 10.62 ± 8.97,*** %
4 | N18: SEQ ID NO: 1 with addition of one amino acid at the amino terminal and one at the carboxyl terminal (FYRVRFLAKENVTQDAEDNC) | 12.67 ± 1.33,*** % | 48.17 ± 3.85,** % | 55.71 ± 4.05,* % | 16.96 ± 4.87,** % | 6.29 ± 2.62,*** % | 10.40 ± 2.72,** % | 18.64 ± 6.98,* % | 1.3 ± 0.24 | 1161.51 ± 297.07 | 6.75 ± 3.22,** % | 25.71 ± 4.05,*** % | 48.73 ± 3.52,** %
5 | N11: SEQ ID NO: 1 with deletion of positions 15-18 and 1-3 and PEG modification at the amino terminal ({PEG}-RFLAKENVTQD; reading uncertain) | 11.54 ± 2.23,*** % | 21.77 ± 5.03,*** % | 30.79 ± 6.74,** % | 13.81 ± 2.92,*** % | 19 ± 5.37,* % | 9.34 ± 3.74,** % | 10.68 ± 5.72,** % | 1.3 ± 0.23 | 1419.28 ± 615.42 | 9.43 ± 2.23,** % | 28.28 ± 3.68,*** % | 53.36 ± 5.49,* %
6 | N34: SEQ ID NO: 1 with A15R, addition of one amino acid at the carboxyl terminal, PEG modification at the amino terminal ({PEG}-YRVRFLAKENVTQDREDNC; reading uncertain) | 15.11 ± 2.01,*** % | 36.53 ± 4.35,** % | 30.51 ± 8.12,** % | 17.96 ± 3.84,** % | 7.38 ± 2.85,*** % | 15.23 ± 4.39,* % | 17.34 ± 4.82,* % | 1.06 ± 0.15 | 1472.21 ± 914.38 | 5.00 ± 2.29,** % | 13.53 ± 4.35,*** % | 18.58 ± 7.87,*** %
7 | N1: polypeptide with the amino acid sequence set forth in SEQ ID NO: 1 (YRVRFLAKENVTQDAEDN) | 8.49 ± 2.99,*** % | 12.68 ± 9.07,*** % | 18.26 ± 8.77,** % | 10.27 ± 3.64,*** % | 5.68 ± 2.86,*** % | 11.18 ± 2.89,** % | 21.83 ± 3.73,* % | 1.01 ± 0.2 | 1340.25 ± 319.59 | 7.26 ± 3.36,** % | 27.31 ± 4.35,** % | 17.42 ± 7.70,*** %
8 | N28: SEQ ID NO: 1 with deletion of positions 1-2 and 18 and PEG modification at the amino terminal ({PEG}-VRFLAKENVTQDAED; reading uncertain) | 10.80 ± 2.66,*** % | 18.08 ± 7.38,*** % | 17.20 ± 6.23,*** % | 9.19 ± 3.22,*** % | 15.23 ± 3.59,* % | 14.83 ± 5.38,* % | 9.36 ± 1.8,** % | 0.91 ± 0.21 | 1286.52 ± 344.21 | 15.63 ± 2.59,* % | 28.08 ± 3.38,*** % | 12.25 ± 8.40,*** %
